{"source": "patent US20100004325A1", "about": "“Use of Baicalein As Prolyl Hydroxylase 2 Inhibitor” (Korea Institute of Science and Technology, priority 2007, published 2010)", "key": {"[1]": {"system": "HIF-1α binding to hypoxia-response element (HRE)", "assay": "p(HRE)4-luciferase reporter assay in HeLa cells", "assay_type": "cell-based", "conditions": "20 μM baicalein, 16 hours", "description": "In order to examine the binding of the HIF-1α stabilized by baicalein in normoxia with HRE existed on a target gene, luciferase assay was conducted as follows. Specifically, HeLa cells (5×10^4 cells/well) were cultured on a 24-well plate, and 100 ng of p(HRE)4-luciferase plasmid and 50 ng of β-galactosidase expression vector, pCHO110, were co-transfected thereinto. As a control to 20 μM of baicalein, DFO (deferoxamine) and CoCl2 were added to the cells, respectively, and cultured for 16 hours. The cell extract was obtained, and the luciferase activity thereof was measured by luminometer (Tuner Designs).\nThe value was normalized for the β-galactosidase activity value and the total amount of protein measured by BCA protein analysis (Sigma)."}, "VEGF [2]": {"system": "VEGF", "assay": "VEGF secretion by HeLa cells, ELISA", "assay_type": "cell-based, human", "conditions": "20 μM baicalein, 16 hours, compared with DMSO control", "description": "In order to examine the secretion change of the VEGF protein known as a secretion protein synthesized in a cell, its cell culture solution was subjected to ELISA as follows. Specifically, HeLa cells aliquoted on a 24-well plate were cultured for 24-48 hour, and DMSO, CoCl2 (200 μM), DFO (125 μM) and baicalein (20 μM) were treated thereto, respectively. After culturing for 16 hours, the cell solution was recovered and centrifuged to separate supernatant. The supernatant was aliquoted on an antibody-coated well plate using human VEGF Quantikine ELISA kit (R&D Systems) to monitor the amount of VEGF in the supernatant. Then, an antibody for VEGF was treated to each well, followed by measuring the amount of the VEGF using luminometer."}, "VEGF [3]": {"system": "VEGF", "assay": "VEGF mRNA expression in HepG2 cells, RT-PCR", "assay_type": "cell-based", "conditions": "HepG2, normoxia", "description": "In order to examine the expression of VEGF known as a representative target gene of the HIF-1α, RT-PCR was conducted as follows. In normoxia, DMSO was treated to HepG2 cells as a negative control, and its influence was observed. As a positive control, HepG2 cells were cultured in hypoxia for 16 hours. In order to amplify cDNA of VEGF mRNA expressed in the cell, the RNA of the cultured cell was subjected to RT-PCR by using forward primer (5′-ccatgaactttctgctdtctt-3′, SEQ ID NO: 5) and reverse primer (5′-[…]-3′, SEQ ID NO: 6). Further, in order to amplify cDNA of 18s rRNA, the RNA of the cultured cell was subjected to RT-PCR by using forward primer (5′-[…]-3′, SEQ ID NO: 7) and reverse primer (5′-[…]-3′, SEQ ID NO: 8) (Table 2).\nThe amplified product was subjected to electrophoresis on 1.5% agarose-gel, and the mRNA expression was quantitated by phosphoimager (Model Las3000, Fuji) (see FIG. 6a)."}, "12-lipoxygenase": {"system": "12-lipoxygenase", "conditions": "Daotai et al., JBC 281; cited from earlier work"}, "[4]": {"target": "T1, F-HyP564 peptide / VBC protein (Homo sapiens, UniProt P40337)", "T1 construct": "made in house; host or cells: E. coli BL21 (DE3), co-expression of pGEX4T-VHL-EB and pDEV-EC (pET29b)", "assay": "Fluorescence polarization of F-HyP564 peptide bound to VBC protein (counter-test)", "assay_type": "binding"}, "PHD2 [5]": {"target": "T2, PHD2 (Homo sapiens, UniProt Q9GZT9)", "T2 construct": "made in house; host or cells: E. coli BL21 (DE3), pGEX-4T-1", "assay": "Proline hydroxylation of B-P564 peptide by PHD2, MALDI mass spectrometry", "assay_type": "biochemical", "conditions": "800 μM baicalein, 1.4 μg/μl PHD2, 2 hours, room temperature", "description": "For the analysis of proline hydroxylation, 800 μM of baicalein and 1.4 μg/μl of PHD2 were mixed in a buffer (20 mM Tris-HCl, pH 8.0, 100 mM NaCl, 1 mM EDTA, 1 mM PMSF, 0.5% NP-40) supplemented with ascorbic acid (final concentration: 400 μM) and α-ketoglutarate (final concentration: 100 μM). Then, 3 μM of the B-P564 peptide was added to the resulting mixture, and reacted at room temperature for 2 hours. Excess salts in the enzyme reactant were removed by ZipTipC18 (Millipore), and the eluted reactant was analyzed by MALDI mass spectrometry."}, "FIH1": {"target": "T3, FIH1 (Homo sapiens, UniProt Q9NWT6)", "T3 construct": "made in house; host or cells: E. coli BL21 (DE3), pET-28a", "assay": "Asparagine hydroxylation of F-N803 peptide by FIH1, MALDI mass spectrometry", "assay_type": "biochemical", "conditions": "20 μM baicalein, 0.55 μg/μl His-FIH1, 2 hours, room temperature", "description": "Further, in order to examine the inhibitory activity of baicalein against FIH1, 20 μM of baicalein and 0.55 μg/μl of His-FIH1 were mixed in a buffer (50 mM Tris-HCl, pH 7.5, 5 mM KCl, 1.5 mM MgCl2) supplemented with ascorbic acid (final concentration: 400 μM) and α-ketoglutarate (final concentration: 100 μM). Then, 4 μM of the F-HIF-1α peptide containing the 788th-822nd amino acid was added to the resulting mixture, and reacted at room temperature for 2 hours. Excess salts in the reactant were removed by ZipTipC18, and the eluted reactant was analyzed by MALDI mass spectrometry."}, "PHD2 [6]": {"target": "T2, PHD2", "assay": "Fluorescence polarization assay of PHD2-mediated hydroxylation of F-P564 peptide (binding to VBC protein)", "assay_type": "biochemical", "conditions": "proline hydroxylation 20 min, baicalein 0 to 200 μM, 500 nM VBC protein; read-out: concentration of baicalein that results in 50% inhibition of the PHD2 activity (IC50)", "description": "In order to screen a PHD2 inhibitor, 1040 compounds having biological activities (NINDS Custom Collection II, MicroSource Discovery Systems) were used. First, 1 μl of each compound was aliquoted into a 1.5 ml tube at the final concentration of 20 μM. Then, GST-PHD2 (final concentration: 0.2-0.3 μg/μl) was mixed with the each compound, followed by adding a buffer (20 mM Tris-HCl, pH 8.0, 100 mM NaCl, 1 mM EDTA, 1 mM PMSF, 0.5% NP-40) thereto. […]\n[…] After mixing at room temperature, the resulting mixture was transferred to a 96-well plate, and fluorescence polarization was measured by using VICTOR (Perkin-Elmer).\nAfter obtaining the fluorescence polarization value of the mixture of the F-Hy564 peptide ([…]) in the buffer by VICTOR, the PHD2 inhibitory activity of each compound was represented in percentage based on that the fluorescence polarization value. 26 compounds with at least 60% of PHD2 inhibitory activity were randomly selected. […]\nIn order to examine the PHD2 inhibitory activity of baicalein, proline hydroxylation was performed for 20 min with increasing final concentrations of baicalein from 0 to 200 μM. […] Fluorescence polarization of the resulting mixture was measured by using a fluorometer (Perkin-Elmer), and the size of slit was 6 nm and the integration time was 5 sec."}, "HIF-1α": {"system": "HIF-1α", "assay": "HIF-1α protein expression in HepG2 cells, western blotting", "assay_type": "cell-based", "conditions": "HepG2, normoxia, 6 hours; increase similar to HIF-1α in hypoxia", "description": "In order to examine the change of the HIF-1α protein expression by baicalein in a cell, HepG2 strain was grown to 80% confluence on a 60 mm tissue culture plate. Baicalein with increasing concentrations was added to the cultured cell and further cultured in normoxia for 6 hours, and as controls, same cell mixtures were cultured in hypoxia. The cells were washed with 4° C. phosphate based saline buffer, and eluted with radioimmunoprecipitation analysis solution containing 150 mM NaCl, 1% Nonidet P-40, 0.5% deoxycholate, 0.1% SDS, 50 mM Tris (pH 7.4). 100 μg/ml PMSF, 10 μg/ml leupeptin, 1 μg/ml antipain, 10 μg/ml aprotinin, 50 mM β-glycerophosphate, 25 mM NaF, 20 mM EGTA, 1 mM DTT and 1 mM Na3VO4. Then, the cells were centrifuged, and the cell extracts thus obtained were quantified by Bradford protein assay. In order to perform the immunoblot against HIF-1α, 20 μg of the cell extract was suspended in SDS sample buffer, and heated in a water bath for 5 min to completely solublize the protein structure. […] The membrane was treated with ECL solution and exposed to X-ray film for 5 min, and finally the HIF-1α protein was detected, and subjected to luminescence image analyzer (Model LAS-3000, Fuji) for detailed analysis."}}, "note": "Several values for one entry are separate records, joined by “and”; a condition that tells them apart may be missing. Identical values can stand only once."}
{"compound": "O=c1cc(-c2ccccc2)oc2cc(O)c(O)c(O)c12", "note": "[baicalein]", "values": [{"measurement": "luciferase activity normalized for total protein amount", "setting": "[1]", "result": "a similar result was obtained"}, {"measurement": "amount of VEGF in the supernatant", "setting": "VEGF [2]", "result": "significantly increase"}, {"measurement": "amount of the expressed VEGF (FIGS. 6a and 6b)", "setting": "VEGF [3]", "result": "increases"}, {"measurement": "activity of 12-lipoxygenase", "setting": "12-lipoxygenase", "result": "inhibits"}, {"measurement": "fluorescence polarization value of F-HyP564 peptide with VBC protein", "setting": "[4]; baicalein at the highest concentration, 500 nM VBC protein", "result": "did not decrease"}, {"measurement": "effect on interaction of F-HyP564 with the VBC protein (fluorescence polarization)", "setting": "[4]; up to 20 μM of baicalein", "result": "did not affect"}, {"measurement": "hydroxylation of the proline residue of B-P564 peptide", "setting": "PHD2 [5]", "result": "not hydroxylated"}, {"measurement": "hydroxylation of the asparagine residue of F-HIF-1α peptide (788th-822nd amino acid)", "setting": "FIH1", "result": "not hydroxylated"}, {"measurement": "IC50", "setting": "PHD2 [6]", "result": "~15 µM and 15 µM"}, {"measurement": "concentration of baicalein at which HIF-1α protein expression increased", "setting": "HIF-1α", "result": "more than 50 μM"}]}
